Here are results for 1 molecule from patent US9750841B2, “Biodegradable medical adhesive and preparation method and use thereof” (INSTITUTE OF PHARMACOLOGY AND TOXICOLOGY ACADEMY OF …, priority 2011, dated 2017).

Series [1] in a line: TEM test of adhesive structure. Conditions: 0.1 mg/mL dilution in water, phosphotungstic acid staining. In kind it is physicochemical. Here is the method:
20 mg of adhesive (A, n-butyl cyanoacrylate as control; B, formulated adhesive J01 (bis-α-cyanoacrylic acid PEG2000 ester:n-butyl cyanoacrylate 1:1, i.e., the formulated adhesive in Example 1) was dissolved in 1 mL of redistilled acetone, to obtain a homogeneous solution, which was diluted by 100-fold. 0.5 mL of the dilution was taken and mixed with 0.5 mL of deionized water. Acetone was distilled off, and water was supplemented till 1 mL, to obtain a 0.1 mg/mL dilution. 15 uL of the dilution was dropped on a copper web-like of electron microscopy, and settled for 15 min. Then, water was removed by adsorption with filter paper. After staining with 5 uL of phosphotungstic acid for 2 min, the samples were observed by transmission electron microscopy.

The conditions of series [2]: rat, in vivo. As for the experimental part: Two groups of adult rats, each six, were taken. The abdominal cavity was opened, a section of small intestine was lifted and stretched out with a biodegradable thread, approximately 1 cm away from the body, and in an inverted “U” shape. […] After the adhesive bond was completely cured and the small intestine was adhered together (about 1 minute), the small intestine was put back into the abdominal cavity, followed by suturing. Normal healing time of biological tissue was about 7-10 days. After 2 weeks, the small intestine was stretched out again, for observing the changes of the small intestine per se and the adhesive bond.

The nature of series [3]: Test of curing time of formulated adhesives on pigskin. The class given is physicochemical. The note with it: between two pieces of pigskin, room temperature. The text has this: Test Method: The medical adhesives of different formulations in Examples 1 and 2 were respectively dropped in a small amount on the surface of one piece of pigskin at room temperature, and the other piece of pigskin was rapidly lapped thereon; the two pieces of pigskin were respectively pulled in opposite directions, to test the adhesion between them. The duration starting from the generation of adhesion between the two pieces of pigskin to the complete cure of the liquid adhesive between the two pieces of pigskin after lapping for a certain time was designated as the curing time.

The nature of series [4]: Adhesion test of skin incision injury of dog. In kind it is in vivo. Conditions: 4 cm skin incision, two stitches plus adhesive, after one week.
Experimental: Adult test dogs (purchased from Experimental Animal Center of Academy of Military Medical Sciences) were unhaired on the neck and back, and disinfected. A longitudinal incision of about 4 cm in length was cut on the left side, deep to muscular layer. […] On the other side of the same position, an incision of the same size was cut, and also sutured in two stitches. Then, the wound was treated in the same way with n-butyl cyanoacrylate.
The nature of series [5]: Intestinal skyrocketing compression test in rats. The class given is in vivo, SD rats. The note with it: rat small intestine, 2 mm hole closed with 5 uL adhesive, tested after 3 min, seven animals per group. Here is the method: Twenty SD rats (purchased from Experimental Animal Center of Academy of Military Medical Sciences) were anaesthetized by intraperitoneal injection of 45 mg/kg sodium pentobarbital, and unhaired on the abdomen. The abdominal cavity was opened, and a section of small intestine 45 mm was taken out. One end of the small intestine was ligated with a silk thread, and the other end was cut to make a small incision, which was then connected to a three-way tube in connection with a pressure gauge and a tension transducer. A syringe needle 2 mm in diameter was used to open a small hole in the small intestine. After cleaning off drainage with cotton, the small hole was rapidly closed by smearing 5 uL medical adhesive, and then test was conducted after standing for 3 min. […] The pressure value at this point was just the maximum tolerable pressure. There were seven animals per group, and the average value and variance were calculated.

Series [6] in a line: Adhesion test of skin incision injury, guinea pigs. The class given is in vivo. Conditions: 2 cm dorsal skin incision, observed over 7 days. As for the experimental part: (§1) Five adult rats and five guinea pigs were unhaired on the back, and subjected to abdominal anesthesia. After the back was disinfected, a longitudinal incision of about 2 cm in length was cut about 1 cm next to the dorsal line, deep to muscular layer. […] On the other side of the back, an incision of the same size was cut, and the wound was treated in the same way with the control adhesive n-butyl cyanoacrylate. Finally, the operative sites were bandaged using gauze.

Series [7] in a line: Degradation of cured adhesive in PBS buffer. The class given is physicochemical. The note with it: 14 days, 0.1 M phosphate buffer pH 7.2-7.4, 37.5° C., average of three samples. The text has this:
After 14 days, the residual solids were weighed. The results were used to evaluate the degradation properties.

The nature of series [8]: Adhesion test of skin incision injury, rats. In kind it is in vivo. The note with it: 2 cm dorsal skin incision, observed over 7 days. Here is the method:
as §1

Series [9] is described as follows: Accelerated degradation in 0.1 N NaOH solution. The class given is physicochemical. The note with it: disappearance to the naked eye. Here is the method: Further accelerated degradation test was carried out in a 0.1 N NaOH solution. The operation method was the same as that provided in this example, with the use of formulated adhesive J01 and the control as samples. The time point when the adhesive bond completely disappeared to the naked eye was regarded as the complete degradation time.

For `C=C(C#N)C(=O)OCCCC` [n-butyl cyanoacrylate], in series [1], the “structure observed by transmission electron microscopy” value is “relatively solid and dense microsphere structure”. Besides, in [2], the “changes of the small intestine tissue” value is “significantly had hyperplasia and significantly became thicker”. The molecule further yielded a curing time in series [3] of 5 to 15 s. Also, the wound healing entry in [4] is on record as “good healing”. Further, the maximum tolerable pressure in [5] stood at 120.22±26.81 mmHg. The wound closure result in series [6] and in [8] was “well closed” each time. Moreover, the “Residual solids % in PBS” value in [7] came out at 95.74%. The “complete degradation time in NaOH (solids completely disappeared)” value in [9] was determined as 4 days.
